Test results taken from patent US20250277066A1, “Substituted Pyridine-2,6-Bis(Phenylenephenolate) Complexes with Enhanced Solubility that are Useful as Catalyst Components for Olefin Polymerization” (ExxonMobil Chemical Patents Inc., priority 2022, published 2025).
Several values for one entry are separate records, joined by “and”; a condition that tells them apart may be missing. Equal entries are not always repeated.

Legend:
[1] = Solubility of complexes in isohexane (Method 1 or Method 2); format: physicochemical; settings: ambient temperature (20° C.-25° C.), mass includes residual solvent
Procedure: Solubility studies for all other complexes were performed using material as synthesized. […] Solvents used were sparged with nitrogen (30-60 minutes) and dried over 3 Å mole sieves. Unless stated otherwise all measurements were performed at ambient temperature (20° C.-25° C.).
General procedure: Solubility was determined using the following Method 1 or Method 2. For calculations, a value of 0.672 g/mL was used for the density of isohexane.
Method 1: A tared vial was loaded with a small amount of the complex (actual mass recorded, including any residual solvent as noted above, typically 5-30 mg). Then a small stir bar (8 mm) was added. Solvent was then added and the mixture was stirred rapidly (1000 rpm). […] This process was repeated until either a clear solution was obtained (no visible solids or murkiness) or the vial was full. As the mixture approached homogeneity (i.e., few remaining solids observed) the volume of the solvent additions was kept small (<1 mL) to minimize excess beyond the solvent required to achieve homogeneity. The stir bar was then removed and the mass of the mixture was measured. If a clear solution had formed then the solubility of the complex was calculated as a single value, based on the mass of complex and the amount of solvent added to achieve a homogeneous solution. If the mixture remained heterogeneous (visible solids or murky), then the value reported is given as being “less than” the calculated value.
Method 2: A measured amount of complex (actual mass recorded, including any residual solvent as noted above) was added to a tared vial, followed by a stir bar. Dry isohexanes were added in small portions and the resulting mixture was stirred after each portion of isohexanes. If a clear solution had formed then the solubility was reported as a range, the lower bound of solubility calculated using the total solvent added to achieve a homogenous solution and the upper bound of solubility calculated using the total solvent measured prior to achieving a homogenous solution. If the mixture remained heterogeneous (visible solids or murky), the upper bound of solubility was calculated using the total solvent added. Formula used to calculate solubility are listed below. Solvent present in the complex is included in the mass and formula weight of the complexes.

[2] = DSC melting point of polymers (TA-Q100); format: physicochemical
Procedure: Differential Scanning Calorimetry (DSC) measurements were performed on a TA-Q100 instrument to determine the melting point of the polymers. Samples were pre-annealed at 220° C. for 15 minutes and then allowed to cool to room temperature overnight. The samples were then heated to 220° C. at a rate of 100° C./minute and then cooled at a rate of 50° C./minute. Melting points were collected during the heating period. The results are reported in the Table 2 under the heading, Tm (° C.).

| Structure (SMILES) | Solubility (s) in Isohexane [1] [mM] | Solubility (s) in Isohexane (wt %) [1] [wt %] | Tm ([2]; polymer made with activator A, T 70 ° C.) | Tm ([2]; polymer made with activator A, T 100 ° C.) | Tm ([2]; polymer made with activator B, T 70 ° C.) | Tm ([2]; polymer made with activator B, T 100 ° C.) | Tm ([2]; polypropylene made with activator A at 70° C.) | Tm ([2]; polypropylene made with activator A at 100° C.) | Tm ([2]; polypropylene made with activator B at 70° C.) | Tm ([2]; polypropylene made with activator B at 100° C.) |
| --- | --- | --- | --- | --- | --- | --- | --- | --- | --- | --- |
| Cc1cc2[n+]3c(c1)-c1ccccc1-c1cc(C(C)(C)C)cc(C45CC6CC(CC(C6)C4)C5)c1[O][Zr-]3([CH3])([CH3])[O]c1c(cc(C(C)(C)C)cc1C13CC4CC(CC(C4)C1)C3)-c1ccccc1-2 [Complex 3] | <3.2 | <0.5 | 150.4 °C and 150.9 °C | 149.4 °C and 148.1 °C and 150.1 °C | 150.5 °C and 150.9 °C | 148.9 °C and 149.8 °C | – | – | – | – |
| CC(C)(C)c1cc2c(c(C34CC5CC(CC(C5)C3)C4)c1)[O][Zr-]1([CH3])([CH3])[O]c3c(cc(C(C)(C)C)cc3C34CC5CC(CC(C5)C3)C4)-c3ccccc3-c3cccc([n+]31)-c1ccccc1-2 [Complex 2] | – | 0.081 | – | – | – | – | 147.1 °C and 148.3 °C | 147.6 °C and 145.6 °C and 146.6 °C | 148.8 °C and 149.3 °C and 148.6 °C | 148.0 °C and 147.3 °C |
